What was measured:
Flt3L-elicited DC = assay: Foxp3 induction by DC pre-treated with SCFA or TSA for 6 h, washed, co-cultured with naïve CD4+ T cells; format: cell-based, mouse; settings: DC pre-treated 6 h, then agent removed
Method: DC were expanded in vivo by subcutaneous injection of B16 melanoma cells secreting FLT3-ligand into the left hind flank of mice as indicated. Once tumors were visible, spleens from injected animals were dissociated in RPMI 1640 medium containing 1.67 U mL-1 liberase TL (Roche) and 50 μg mL-1 DNAse I (Roche) for 20 min at 37° C. with shaking EDTA was then added at a final concentration of 5 mM to stop digestion and the resulting homogenate was processed for CD11c+ cell isolation using the MACS mouse CD11c (N418) purification kit (Miltenyi Biotec).
In vitro Foxp3 induction assays were performed by co-culturing DC with 5.5×10^4 CD4+CD44loCD62LhiCD25-naïve T cells in the presence of 1 μg ml-1 of CD3 antibody, 1 ng mL-1 TGF-β, and 100 U ml-1 IL-2, in 96-well flat-bottom plates for 4 d. For Foxp3 induction in the presence of butyrate- or TSA-pretreated DC, TGF-β was used at 0.1 ng mL-1 final concentration. In vitro induction assays in the absence of DC were performed by incubating 5.5×10^4 naïve CD4+ T cells with 1 ng mL-1 TGF-β, 100 U ml-1 IL-2, and a 1:1 cell-to-bead ratio of CD3/CD28 T activator Dynabeads (Invitrogen). For in vitro suppression assays, 4×10^4 naïve CD4+ T cells were FACS-sorted from B6 mice and cultured with graded numbers of CD4+Foxp3+ Treg cells FACS-sorted from Foxp3GFP mice treated with antibiotics and with or without butyrate, in the presence of […] irradiated T cell-depleted splenocytes and 1 μg ml-1 CD3 antibody in a 96-well round-bottom plate for 80 h. Proliferation of T cells was assessed by [3H]-thymidine incorporation during the final 8 h of culture.

T cells = settings: Wang et al. 2009; Tao et al. 2007; cited from earlier work
dendritic cells = assay: Treg induction by dendritic cells treated with soluble or liposome encapsulated TSA; format: cell-based; settings: DC treated 6 hrs with soluble or liposome encapsulated TSA, washed, incubated with naïve CD4+ T cells
Text: TSA was encapsulated in lipid particles containing mixtures of lipids for release of contents only upon entry into cells. For details see Karve et al. Langmuir 2008, 24, 5679-5688. To monitor incorporation of TSA into liposomes, lipids were dissociated with hydrogenated Triton-X and monitored for increased UV absorption compared to free TSA and ‘empty’ liposomes. >85% of free TSA is incorporated into the lipid particles.
The ability of dendritic cells to induce Treg development in vitro after exposure to lipopsome encapsulated TSA was evaluated. Doubly bead-purified dendritic cells were treated for 6 hrs with soluble or liposome encapsulated TSA then washed and incubated with naïve CD4+ T cells. Pretreatment of DCs with TSA increased the generation of Foxp3+ cells relative to vehicle control (FIG. 11).

LPS response genes = assay: Gene expression in DC (microarray, Relb qPCR); format: cell-based, mouse; settings: 6 h
Method: FIG. 4 depicts HDAC-inhibitory activity of butyrate decreases pro-inflammatory cytokine expression within DC to promote Treg induction: A) Histone acetylation in Flt3L-elicited DC from B6 mice treated with the indicated SCFA (500 μM) or TSA (10 nM) for 6 h followed by acid extraction of histones from isolated nuclei, SDS-PAGE and blotting with antibody for pan-acetylated H3. Total histone H3 served as a loading control; B) Induction of Foxp3 expression upon stimulation of naïve CD4+ T cells by CD3 antibody in the presence of SCFA or TSA, Flt3L-elicited DC and TGF-β; C) RelB gene expression quantified by qPCR in purified Flt3L-elicited DC from B6 mice treated for 6 h with SCFA or TSA, as in (A); and D) RelB gene expression quantified by qPCR in purified Flt3L-elicited DC from B6 mice treated with or without TSA in combination with, or in the absence of, butyrate at the indicated concentrations.
The data are shown as percent of CD4+ cells expressing Foxp3 after 4 days of culture. Data are representative of 2 independent experiments; error bars denote SEM.

SMILES: CC(/C=C/C(=O)NO)=C\[C@@H](C)C(=O)c1ccc(N(C)C)cc1 [TSA, trichostatin A]
- ability of pre-treated DCs to induce Foxp3 expression in naïve CD4+ T cells (Flt3L-elicited DC): potently induced
- Treg cell generation in vitro by acting on T cells (T cells): potentiates
- generation of Foxp3+ cells relative to vehicle control (dendritic cells): increased
- expression of LPS response genes including 1112, 116, and Relb in DCs (LPS response genes): systemic repression
